Here are results for seven compounds from ChEMBL document CHEMBL3091304 (Bioorg Med Chem, 2013).

Data set [1] addresses Kappa-type opioid receptor (Cricetulus griseus) (UniProt G3HZR5). As to the kind of experiment: Displacement of [3H]U-69593 from kappa opioid receptor in CHO cells at 10 uM after 120 mins relative to control. Type of data set: cell-based. (In a radioligand displacement assay an active substance lowers the binding of a labelled ligand.)
Data set [2] deals with Mu-type opioid receptor (Homo sapiens) (UniProt P35372). The settings on record: HEK293, at 1 µM.
Description: Displacement of [3H]diprenorphine from mu opioid receptor in HEK293 cells at 1 uM after 120 mins relative to control
Data set [3] has as its target Delta-type opioid receptor (Cricetulus griseus) (UniProt G3H1Y1). The data set can be described thus: Displacement of [3H]DADLE from delta opioid receptor in CHO cells at 1 uM after 120 mins relative to control. It is filed as cell-based.
For data set [4], the species on record is Rattus norvegicus. The data set can be described thus: Inhibition of UDP-glucuronosyltransferase in Sprague-Dawley rat liver microsomes assessed as morphine conversion to M3G up to 50 uM after 30 mins by HPLC analysis relative to control. A general note: Liver microsomes are vesicles of endoplasmic reticulum, rich in cytochrome P450 enzymes.
In data set [5] the target is Kappa-type opioid receptor (Cricetulus griseus) (UniProt G3HZR5). The data set can be described thus: Displacement of [3H]U-69593 from kappa opioid receptor in CHO cells at 1 uM after 120 mins relative to control. Type of data set: cell-based.
Data set [6] addresses Mu-type opioid receptor (Homo sapiens) (UniProt P35372). The settings on record: HEK293, at 10 µM.
Description: Displacement of [3H]diprenorphine from mu opioid receptor in HEK293 cells at 10 uM after 120 mins relative to control
The subject of data set [7] is Hepatocyte. The data set can be described thus: Inhibition of UDP-glucuronosyltransferase in Sprague-Dawley rat hepatocytes assessed as morphine conversion to M3G at 5 to 10 uM incubated for 72 hrs prior to substrate addition measured after 2 hrs by HPLC analysis. It is filed as cell-based.
Data set [8] concerns the target Delta-type opioid receptor (Cricetulus griseus) (UniProt G3H1Y1). As to the kind of experiment: Displacement of [3H]DADLE from delta opioid receptor in CHO cells at 10 uM after 120 mins relative to control. Type of data set: cell-based.
The species entered for data set [9] is Rattus norvegicus. As to the kind of experiment: Inhibition of UDP-glucuronosyltransferase in Sprague-Dawley rat liver microsomes assessed as morphine conversion to M6G after 30 mins by HPLC analysis.
Data set [10] in a line: Clearance in Sprague-Dawley rat liver microsomes at 1 uM. It is filed as ADME. The following applies: read-out: CLH.
The species named for data set [11] is Rattus norvegicus. As to the kind of experiment: Activity at UDP-glucuronosyltransferase in Sprague-Dawley rat liver microsomes assessed as morphine conversion to M3G at 5 uM by Michaelis-Menten plot analysis.
The nature of data set [12]: Clearance in Sprague-Dawley rat liver microsomes at 2.5 uM. The following applies: read-out: CLH. It is filed as ADME.
For data set [13], the species on record is Rattus norvegicus. As to the kind of experiment: Activity at UDP-glucuronosyltransferase in Sprague-Dawley rat liver microsomes assessed as morphine conversion to M3G at 50 uM by Michaelis-Menten plot analysis.
The nature of data set [14]: Clearance in Sprague-Dawley rat liver microsomes at 10 uM. The following applies: read-out: CLH. It is filed as ADME.
Data set [15] is filed under the species Rattus norvegicus. As to the kind of experiment: Competitive inhibition of UDP-glucuronosyltransferase in Sprague-Dawley rat liver microsomes assessed as morphine conversion to M3G up to 5 uM by Lineweaver-Burk plot analysis.
Data set [16] is described as follows: Inhibition of UDP-glucuronosyltransferase in Sprague-Dawley rat hepatocytes assessed as morphine conversion to M3G incubated for 72 hrs prior to substrate addition measured after 2 hrs by HPLC analysis. The settings on record: Hepatocyte. Type of data set: cell-based.
For data set [17], the species on record is Rattus norvegicus. As to the kind of experiment: (§1) Inhibition of UDP-glucuronosyltransferase in Sprague-Dawley rat liver microsomes assessed as morphine conversion to M3G after 30 mins by HPLC analysis.
Data set [18] is described as follows: as §1.
For data set [19], the species on record is Rattus norvegicus. The data set can be described thus: Activity at UDP-glucuronosyltransferase in Sprague-Dawley rat liver microsomes assessed as morphine conversion to M3G at 1 uM by Michaelis-Menten plot analysis.
The species entered for data set [20] is Rattus norvegicus. As to the kind of experiment: Activity at UDP-glucuronosyltransferase in Sprague-Dawley rat liver microsomes assessed as morphine conversion to M3G at 2.5 uM by Michaelis-Menten plot analysis.
Data set [21] is described as follows: Clearance in Sprague-Dawley rat liver microsomes at 50 uM. Type of data set: ADME. The settings on record: read-out: CLH.
Data set [22] is described as follows: Clearance in Sprague-Dawley rat liver microsomes at 5 uM. Type of data set: ADME. The settings on record: read-out: CLH.
The species entered for data set [23] is Rattus norvegicus. As to the kind of experiment: Activity at UDP-glucuronosyltransferase in Sprague-Dawley rat liver microsomes assessed as morphine conversion to M3G at 10 uM by Michaelis-Menten plot analysis.
Data set [24] concerns Hepatocyte. As to the kind of experiment: Inhibition of UDP-glucuronosyltransferase in Sprague-Dawley rat hepatocytes assessed as morphine conversion to M3G at 5 to 40 uM incubated for 72 hrs prior to substrate addition measured after 2 hrs by HPLC analysis. Type of data set: cell-based.

Active and inactive are the calls of the source. No cut-off for these calls is given here.

Mu-type opioid receptor (Homo sapiens), sequence (P35372 whole entry): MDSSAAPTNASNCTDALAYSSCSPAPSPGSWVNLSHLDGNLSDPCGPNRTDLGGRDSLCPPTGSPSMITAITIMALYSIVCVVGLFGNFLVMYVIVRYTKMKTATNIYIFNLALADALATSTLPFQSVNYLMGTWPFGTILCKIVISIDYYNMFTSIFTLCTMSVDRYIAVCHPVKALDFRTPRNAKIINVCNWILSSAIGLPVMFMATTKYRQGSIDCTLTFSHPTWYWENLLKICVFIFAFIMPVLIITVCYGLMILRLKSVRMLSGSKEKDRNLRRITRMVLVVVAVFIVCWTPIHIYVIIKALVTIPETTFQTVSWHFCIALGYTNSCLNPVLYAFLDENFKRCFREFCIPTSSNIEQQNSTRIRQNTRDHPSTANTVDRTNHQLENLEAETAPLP
Kappa-type opioid receptor (Cricetulus griseus), sequence (G3HZR5 as listed by the source): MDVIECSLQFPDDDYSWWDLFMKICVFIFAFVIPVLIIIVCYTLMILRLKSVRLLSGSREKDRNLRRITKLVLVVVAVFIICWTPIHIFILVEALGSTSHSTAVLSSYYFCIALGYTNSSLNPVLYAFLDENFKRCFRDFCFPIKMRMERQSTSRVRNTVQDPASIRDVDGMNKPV
Delta-type opioid receptor (Cricetulus griseus), sequence (G3H1Y1 as listed by the source): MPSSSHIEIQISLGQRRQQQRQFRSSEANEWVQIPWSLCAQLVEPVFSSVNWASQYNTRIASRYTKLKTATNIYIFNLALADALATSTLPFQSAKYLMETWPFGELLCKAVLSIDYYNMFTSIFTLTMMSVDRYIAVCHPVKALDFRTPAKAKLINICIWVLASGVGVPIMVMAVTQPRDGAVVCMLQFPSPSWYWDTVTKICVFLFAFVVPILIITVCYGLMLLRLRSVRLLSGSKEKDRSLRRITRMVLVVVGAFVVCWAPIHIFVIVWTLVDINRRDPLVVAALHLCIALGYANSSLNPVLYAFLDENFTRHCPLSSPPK

As to `COc1ccc2c3c1O[C@H]1[C@@H](O)CC[C@H]4[C@@H](C2)N(C)CC[C@@]341`, the inhibition (commonly the relative decrease from the control value, in per cent) turned out to be 51% in [1]; 17% in data set [2]; 7% in data set [3]; 40% in data set [4]; 4% in data set [5]; 40% in data set [6]. The inhibition in data set [8] was found to be 24%. The inhibition result in data set [7] and in data set [9] was “inactive” throughout.
On to `COc1ccc2c3c1O[C@H]1[C@@H](O)C=C[C@H]4[C@@H](C2)N(C)CC[C@@]341` [CODEINE], for which the microsomal CLint at 1 µM in data set [10] came out at 48 µL/min/mg. Further, the Km (as a rule, the concentration of substrate that gives half-maximal velocity) in [11] was found to be 0.43 µM; in data set [13], 0.48 µM; in [19], 0.26 µM; in [20] it was 0.41 µM; in [23] it was 0.37 µM. In addition, the Vmax – broadly, the top rate of the reaction or transport when substrate is in excess – in data set [11] was 8.04 nmol/min/mg; in data set [13], 4.06 nmol/min/mg; in [19], 12.5 nmol/min/mg; in data set [20], 12.4 nmol/min/mg; in data set [23], 4.41 nmol/min/mg. Also, the microsomal CLint at 2.5 µM in data set [12] was determined as 31.1 µL/min/mg. In addition, the microsomal CLint at 10 µM in data set [14] worked out at 11.9 µL/min/mg. For the same compound, the inhibition result in [15] and in data set [9] was “inactive” in each case. For the same compound, the figures for the IC50 in data set [16] and in [18] were 20.9 µM and 4.32 µM, respectively. The inhibition result in data set [17] was “Dose-dependent effect”. Moreover, the Ki – broadly, the equilibrium dissociation constant of an inhibitor or competing ligand from its target – in data set [18] turned out to be 6.9 µM. The microsomal CLint at 50 µM in data set [21] was found to be 8.35 µL/min/mg. Moreover, the microsomal CLint at 5 µM in [22] came out at 18.6 µL/min/mg.
Consider `CCCCCCCCCCCC(=O)O[C@H]1C=C[C@H]2[C@H]3Cc4ccc(OC)c5c4[C@@]2(CCN3C)[C@H]1O5`, for which the inhibition in data set [1] is 40%; in data set [2], 0%; in data set [3], -7%; in data set [5] it was 8%; in data set [6], 12%; in [8] it was 13%. In addition, in [4], the inhibition result was “Active”. Also, in data set [9], the inhibition entry is “inactive”.
With `COc1ccc2c3c1O[C@H]1[C@@H](OC(=O)C(C)(C)C)C=C[C@H]4[C@@H](C2)N(C)CC[C@@]341`, the microsomal CLint at 1 µM in data set [10] was found to be 52.7 µL/min/mg. The Km worked out at 0.36 µM in [11]; 0.62 µM in [13]; 0.13 µM in [19]; 0.22 µM in [20]; 0.72 µM in data set [23]. The Vmax came to 4.53 nmol/min/mg in data set [11]; 3.95 nmol/min/mg in data set [13]; 7.03 nmol/min/mg in [19]; 6.28 nmol/min/mg in data set [20]; 4.63 nmol/min/mg in [23]. The inhibition worked out at 42% in [1]; 20% in [2]; 57% in data set [3]; 6% in [5]; 38% in data set [6]; 90% in [8]. The inhibition entry in data set [17] was “Dose-dependent effect”. The microsomal CLint at 2.5 µM in data set [12] worked out at 29.1 µL/min/mg. In addition, the microsomal CLint at 10 µM in data set [14] turned out to be 6.88 µL/min/mg. The inhibition result in data set [9] is “inactive”. The IC50 (in general, the concentration needed to halve the response being measured) in data set [18] was 2.27 µM. The Ki in data set [18] was 2.56 µM. The inhibition entry in data set [24] is “Active”. Further, the microsomal CLint at 50 µM in data set [21] came to 6.54 µL/min/mg. For the same compound, the microsomal CLint at 5 µM in [22] stood at 12.7 µL/min/mg.
As to `CN1CC[C@]23c4c5ccc(O)c4O[C@H]2[C@@H](O)C=C[C@H]3[C@H]1C5`, the inhibition in [1] stood at 100%; in [3], 72%; in data set [5], 95%; in [8], 95%.
For `COc1ccc2c3c1O[C@H]1[C@@H](OC(C)=O)CC[C@H]4[C@@H](C2)N(C)CC[C@@]341`, the inhibition in [1] was 13%; in data set [2], -2%; in data set [3], -10%; in data set [5], 3%; in data set [6], 5%. Also, the inhibition result in [4] was “Active”. For the same compound, the inhibition entry in [7] and in data set [9] was “inactive” each time.
`COc1ccc2c3c1O[C@H]1[C@@H](OC(C)=O)C=C[C@H]4[C@@H](C2)N(C)CC[C@@]341`: in data set [10], the microsomal CLint at 1 µM is 37.8 µL/min/mg. In addition, the Km in [11] is 0.56 µM; in [13] it was 0.69 µM; in data set [19], 0.26 µM; in data set [20], 0.41 µM; in data set [23] it was 0.35 µM. The Vmax in data set [11] was determined as 7.92 nmol/min/mg; in data set [13], 4.01 nmol/min/mg; in data set [19] it was 9.74 nmol/min/mg; in [20], 10.1 nmol/min/mg; in data set [23] it was 3.31 nmol/min/mg. For the same compound, the inhibition in [1] is 66%; in data set [2], 19%; in data set [3], 18%; in data set [5] it was 25%; in [6], 43%; in data set [8] it was 60%. In data set [17], the inhibition result is “Dose-dependent effect”. For the same compound, in [12], the microsomal CLint at 2.5 µM was 24.7 µL/min/mg. Besides, the microsomal CLint at 10 µM in data set [14] came out at 9.38 µL/min/mg. Moreover, the inhibition result in data set [15] and in [9] was “inactive” in each case. Besides, in data set [18], the IC50 stood at 3.25 µM. Further, the Ki in data set [18] was found to be 5.17 µM. The inhibition entry in data set [24] was “Active”. In data set [21], the microsomal CLint at 50 µM was 5.97 µL/min/mg. The microsomal CLint at 5 µM in data set [22] was determined as 25 µL/min/mg.
